Our source for the ΔTm values is ChEMBL document CHEMBL1145498, “A systematic interaction map of validated kinase inhibitors with Ser/Thr kinases” (Proc Natl Acad Sci U S A, 2007).

Experiment [1] deals with Serine/threonine-protein kinase 16 (Homo sapiens) (UniProt O75716).
In experiment [2] the target is Casein kinase I isoform gamma-2 (Homo sapiens) (UniProt P78368).
Experiment [3] deals with Calcium/calmodulin-dependent protein kinase type II subunit alpha (Homo sapiens) (UniProt Q9UQM7).
The target in experiment [4] is Serine/threonine-protein kinase pim-2 (Homo sapiens, UniProt Q9P1W9).
Experiment [5] concerns the target Ribosomal protein S6 kinase alpha-3 (Homo sapiens) (UniProt P51812).
In experiment [6] the target is T1, Serine/threonine-protein kinase 17A (Homo sapiens) (UniProt Q9UEE5).
T1 sequence (whole entry): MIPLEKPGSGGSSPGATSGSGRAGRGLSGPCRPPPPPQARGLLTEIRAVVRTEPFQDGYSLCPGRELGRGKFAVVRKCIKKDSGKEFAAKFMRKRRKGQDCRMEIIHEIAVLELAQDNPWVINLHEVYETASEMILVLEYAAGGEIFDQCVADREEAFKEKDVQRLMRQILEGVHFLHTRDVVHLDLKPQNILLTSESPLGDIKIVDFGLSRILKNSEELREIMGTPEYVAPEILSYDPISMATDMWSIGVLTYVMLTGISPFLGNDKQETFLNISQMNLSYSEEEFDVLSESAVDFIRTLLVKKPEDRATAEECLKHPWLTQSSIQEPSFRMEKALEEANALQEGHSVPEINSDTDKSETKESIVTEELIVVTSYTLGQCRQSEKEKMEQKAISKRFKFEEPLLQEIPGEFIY

The target of experiment [7] is Calcium/calmodulin-dependent protein kinase type II subunit beta (Homo sapiens) (UniProt Q13554).
The target of experiment [8] is Cyclin-dependent kinase 2 (Homo sapiens, UniProt P24941).
Experiment [9] deals with Dual specificity protein kinase CLK2 (Homo sapiens) (UniProt P49760).
The target in experiment [10] is T2, Mitogen-activated protein kinase kinase kinase 5 (Homo sapiens) (UniProt Q99683).
T2 sequence (whole entry): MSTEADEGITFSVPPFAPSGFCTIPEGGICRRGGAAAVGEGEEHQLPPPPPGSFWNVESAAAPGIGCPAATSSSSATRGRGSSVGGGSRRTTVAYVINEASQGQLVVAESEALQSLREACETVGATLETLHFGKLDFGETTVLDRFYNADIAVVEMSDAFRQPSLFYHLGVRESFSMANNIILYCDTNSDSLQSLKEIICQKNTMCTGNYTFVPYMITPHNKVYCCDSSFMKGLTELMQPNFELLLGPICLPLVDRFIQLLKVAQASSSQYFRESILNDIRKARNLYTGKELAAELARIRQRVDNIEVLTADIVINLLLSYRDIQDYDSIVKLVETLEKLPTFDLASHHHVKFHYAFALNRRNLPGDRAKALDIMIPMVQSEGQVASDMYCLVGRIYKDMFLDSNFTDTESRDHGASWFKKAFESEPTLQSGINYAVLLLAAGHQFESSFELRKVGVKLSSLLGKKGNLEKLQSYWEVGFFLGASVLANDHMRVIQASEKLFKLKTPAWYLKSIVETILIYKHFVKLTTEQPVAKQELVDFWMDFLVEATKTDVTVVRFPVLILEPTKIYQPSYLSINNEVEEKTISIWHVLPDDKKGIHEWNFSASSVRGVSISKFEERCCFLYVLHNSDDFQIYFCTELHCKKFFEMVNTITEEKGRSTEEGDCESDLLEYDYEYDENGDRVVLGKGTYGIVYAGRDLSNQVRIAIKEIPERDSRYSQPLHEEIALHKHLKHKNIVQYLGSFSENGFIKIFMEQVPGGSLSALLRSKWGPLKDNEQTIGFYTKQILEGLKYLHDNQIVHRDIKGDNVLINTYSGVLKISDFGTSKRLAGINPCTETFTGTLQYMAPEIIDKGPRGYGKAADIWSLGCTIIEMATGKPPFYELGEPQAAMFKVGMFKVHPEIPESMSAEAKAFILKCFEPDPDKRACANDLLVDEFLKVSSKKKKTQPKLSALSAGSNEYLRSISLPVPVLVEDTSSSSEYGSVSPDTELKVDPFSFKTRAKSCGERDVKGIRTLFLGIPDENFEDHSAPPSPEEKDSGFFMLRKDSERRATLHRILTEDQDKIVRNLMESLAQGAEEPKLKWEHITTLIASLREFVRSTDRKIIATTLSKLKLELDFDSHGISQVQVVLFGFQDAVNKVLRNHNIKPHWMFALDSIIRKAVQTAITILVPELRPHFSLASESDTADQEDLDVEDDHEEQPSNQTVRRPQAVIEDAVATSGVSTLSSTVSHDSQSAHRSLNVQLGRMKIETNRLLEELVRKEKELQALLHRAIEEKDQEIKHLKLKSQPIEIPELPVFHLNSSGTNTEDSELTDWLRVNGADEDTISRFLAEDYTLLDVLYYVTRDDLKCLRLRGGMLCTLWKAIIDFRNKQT

The target of experiment [11] is Serine/threonine-protein kinase OSR1 (Homo sapiens) (UniProt O95747).
Experiment [12] concerns the target Cyclin-dependent kinase 6 (Homo sapiens) (UniProt Q00534).
In experiment [13] the target is Mitogen-activated protein kinase 6 (Homo sapiens) (UniProt Q16659).
In experiment [14] the target is Serine/threonine-protein kinase PAK 6 (Homo sapiens) (UniProt Q9NQU5).
The target of experiment [15] is Serine/threonine-protein kinase VRK2 (Homo sapiens) (UniProt Q86Y07).
In experiment [16] the target is Glycogen synthase kinase-3 beta (Homo sapiens, UniProt P49841).
Experiment [17] concerns the target Serine/threonine-protein kinase 26 (Homo sapiens) (UniProt Q9P289).
Experiment [18] deals with TRAF2 and NCK-interacting protein kinase (Homo sapiens) (UniProt Q9UKE5).
Experiment [19] addresses Casein kinase I isoform gamma-1 (Homo sapiens) (UniProt Q9HCP0).
In experiment [20] the target is Serine/threonine-protein kinase pim-1 (Homo sapiens) (UniProt P11309).
The target of experiment [21] is Cyclin-dependent kinase-like 1 (Homo sapiens) (UniProt Q00532).

Structures are written as SMILES.

Glycogen synthase kinase-3 beta, sequence (P49841 whole entry, looked up): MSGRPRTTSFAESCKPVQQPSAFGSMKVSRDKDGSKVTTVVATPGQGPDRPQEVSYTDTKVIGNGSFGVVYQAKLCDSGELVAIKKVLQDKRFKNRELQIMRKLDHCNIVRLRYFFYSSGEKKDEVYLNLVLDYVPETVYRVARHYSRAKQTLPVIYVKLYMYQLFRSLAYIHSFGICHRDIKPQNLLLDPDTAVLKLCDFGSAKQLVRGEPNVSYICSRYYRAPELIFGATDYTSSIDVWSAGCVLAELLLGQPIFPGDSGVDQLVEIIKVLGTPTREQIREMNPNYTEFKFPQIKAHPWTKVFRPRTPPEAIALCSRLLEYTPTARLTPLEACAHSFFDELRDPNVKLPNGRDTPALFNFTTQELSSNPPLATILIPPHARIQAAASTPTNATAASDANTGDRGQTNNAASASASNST
Serine/threonine-protein kinase pim-2, sequence (Q9P1W9 whole entry, looked up): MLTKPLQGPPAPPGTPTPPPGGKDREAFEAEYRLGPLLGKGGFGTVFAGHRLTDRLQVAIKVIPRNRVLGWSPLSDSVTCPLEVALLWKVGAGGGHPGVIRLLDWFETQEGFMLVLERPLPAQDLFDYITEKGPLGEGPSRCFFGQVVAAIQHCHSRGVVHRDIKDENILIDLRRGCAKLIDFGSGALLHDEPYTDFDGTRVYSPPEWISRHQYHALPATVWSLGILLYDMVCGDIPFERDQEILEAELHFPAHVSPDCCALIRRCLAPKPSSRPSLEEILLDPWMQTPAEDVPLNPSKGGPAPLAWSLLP
Serine/threonine-protein kinase PAK 6 (Homo sapiens), sequence (Q9NQU5 whole entry, looked up): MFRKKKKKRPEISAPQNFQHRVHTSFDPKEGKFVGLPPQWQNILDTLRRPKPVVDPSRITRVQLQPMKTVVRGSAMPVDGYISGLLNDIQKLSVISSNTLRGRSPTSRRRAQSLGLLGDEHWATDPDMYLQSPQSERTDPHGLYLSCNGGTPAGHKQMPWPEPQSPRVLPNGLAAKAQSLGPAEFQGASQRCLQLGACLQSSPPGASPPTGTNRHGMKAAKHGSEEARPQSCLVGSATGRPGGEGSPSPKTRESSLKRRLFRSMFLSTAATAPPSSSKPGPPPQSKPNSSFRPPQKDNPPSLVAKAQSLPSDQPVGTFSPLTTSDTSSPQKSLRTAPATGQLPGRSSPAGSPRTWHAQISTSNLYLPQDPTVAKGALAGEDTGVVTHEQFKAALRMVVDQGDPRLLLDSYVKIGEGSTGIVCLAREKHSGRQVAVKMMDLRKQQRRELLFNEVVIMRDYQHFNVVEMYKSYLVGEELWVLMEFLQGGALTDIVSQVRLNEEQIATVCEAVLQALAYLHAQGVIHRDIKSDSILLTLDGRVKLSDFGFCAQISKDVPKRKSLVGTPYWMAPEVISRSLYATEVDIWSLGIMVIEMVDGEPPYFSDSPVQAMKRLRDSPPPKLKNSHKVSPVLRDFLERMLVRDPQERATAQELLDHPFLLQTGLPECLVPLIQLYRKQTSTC
Serine/threonine-protein kinase OSR1 (Homo sapiens), sequence (O95747 2-527 limits assumed): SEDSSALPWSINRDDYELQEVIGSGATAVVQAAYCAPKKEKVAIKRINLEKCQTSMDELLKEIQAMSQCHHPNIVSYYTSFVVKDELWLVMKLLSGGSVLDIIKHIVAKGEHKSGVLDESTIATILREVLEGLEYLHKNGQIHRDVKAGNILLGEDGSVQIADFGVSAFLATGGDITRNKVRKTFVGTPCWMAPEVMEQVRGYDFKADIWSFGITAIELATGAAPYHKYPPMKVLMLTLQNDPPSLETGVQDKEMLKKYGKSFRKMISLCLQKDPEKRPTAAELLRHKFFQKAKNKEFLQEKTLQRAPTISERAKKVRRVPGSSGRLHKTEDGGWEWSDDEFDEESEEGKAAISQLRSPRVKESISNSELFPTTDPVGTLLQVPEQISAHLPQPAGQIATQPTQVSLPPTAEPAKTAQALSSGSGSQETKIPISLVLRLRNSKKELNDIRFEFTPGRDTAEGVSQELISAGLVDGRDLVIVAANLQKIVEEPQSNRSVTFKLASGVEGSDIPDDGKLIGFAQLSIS
Serine/threonine-protein kinase VRK2 (Homo sapiens), sequence (Q86Y07 whole entry): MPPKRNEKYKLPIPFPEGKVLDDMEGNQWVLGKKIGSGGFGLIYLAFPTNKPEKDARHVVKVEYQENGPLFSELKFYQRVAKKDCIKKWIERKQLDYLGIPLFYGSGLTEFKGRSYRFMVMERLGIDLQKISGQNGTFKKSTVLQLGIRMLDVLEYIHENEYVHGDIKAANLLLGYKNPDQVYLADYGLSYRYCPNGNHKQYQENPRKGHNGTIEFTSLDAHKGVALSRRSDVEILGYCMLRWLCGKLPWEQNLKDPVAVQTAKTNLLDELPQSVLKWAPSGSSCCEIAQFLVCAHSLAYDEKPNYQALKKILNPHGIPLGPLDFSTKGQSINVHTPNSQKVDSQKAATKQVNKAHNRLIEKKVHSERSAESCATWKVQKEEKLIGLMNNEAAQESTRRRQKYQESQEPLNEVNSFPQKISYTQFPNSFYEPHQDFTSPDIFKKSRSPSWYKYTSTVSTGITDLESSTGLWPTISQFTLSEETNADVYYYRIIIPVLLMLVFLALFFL
Serine/threonine-protein kinase pim-1 (Homo sapiens), sequence (P11309 whole entry, looked up): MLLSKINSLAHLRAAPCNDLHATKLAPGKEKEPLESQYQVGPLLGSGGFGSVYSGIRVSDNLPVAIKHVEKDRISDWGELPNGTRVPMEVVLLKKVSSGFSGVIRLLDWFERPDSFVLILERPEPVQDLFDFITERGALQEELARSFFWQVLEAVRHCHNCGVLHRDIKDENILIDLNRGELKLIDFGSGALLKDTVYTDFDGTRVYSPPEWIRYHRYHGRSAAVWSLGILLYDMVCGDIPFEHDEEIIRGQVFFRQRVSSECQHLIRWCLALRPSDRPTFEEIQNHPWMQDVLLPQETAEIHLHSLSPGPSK
Serine/threonine-protein kinase 16 (Homo sapiens), sequence (O75716 whole entry, canonical isoform): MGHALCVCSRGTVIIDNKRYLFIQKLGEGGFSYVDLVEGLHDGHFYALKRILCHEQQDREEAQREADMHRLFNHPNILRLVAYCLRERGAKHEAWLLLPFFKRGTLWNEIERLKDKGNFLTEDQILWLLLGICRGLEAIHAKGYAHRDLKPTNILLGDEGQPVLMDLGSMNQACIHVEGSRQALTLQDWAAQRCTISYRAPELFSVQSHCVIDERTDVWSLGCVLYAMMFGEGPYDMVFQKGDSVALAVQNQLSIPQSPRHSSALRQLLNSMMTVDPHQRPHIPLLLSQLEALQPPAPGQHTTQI
Calcium/calmodulin-dependent protein kinase type II subunit alpha (Homo sapiens), sequence (Q9UQM7 whole entry): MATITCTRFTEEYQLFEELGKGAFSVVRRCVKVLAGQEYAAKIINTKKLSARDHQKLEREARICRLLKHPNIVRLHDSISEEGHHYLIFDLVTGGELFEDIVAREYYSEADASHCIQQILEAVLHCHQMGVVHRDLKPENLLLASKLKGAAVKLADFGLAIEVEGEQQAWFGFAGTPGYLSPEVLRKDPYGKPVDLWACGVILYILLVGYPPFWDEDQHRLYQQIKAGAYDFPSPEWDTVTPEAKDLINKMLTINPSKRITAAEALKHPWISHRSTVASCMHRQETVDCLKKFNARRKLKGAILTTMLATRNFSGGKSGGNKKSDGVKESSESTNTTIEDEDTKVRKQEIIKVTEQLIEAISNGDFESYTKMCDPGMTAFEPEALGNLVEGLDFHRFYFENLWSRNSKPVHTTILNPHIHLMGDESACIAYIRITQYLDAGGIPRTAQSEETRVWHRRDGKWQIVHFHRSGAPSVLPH
Ribosomal protein S6 kinase alpha-3 (Homo sapiens), sequence (P51812 whole entry): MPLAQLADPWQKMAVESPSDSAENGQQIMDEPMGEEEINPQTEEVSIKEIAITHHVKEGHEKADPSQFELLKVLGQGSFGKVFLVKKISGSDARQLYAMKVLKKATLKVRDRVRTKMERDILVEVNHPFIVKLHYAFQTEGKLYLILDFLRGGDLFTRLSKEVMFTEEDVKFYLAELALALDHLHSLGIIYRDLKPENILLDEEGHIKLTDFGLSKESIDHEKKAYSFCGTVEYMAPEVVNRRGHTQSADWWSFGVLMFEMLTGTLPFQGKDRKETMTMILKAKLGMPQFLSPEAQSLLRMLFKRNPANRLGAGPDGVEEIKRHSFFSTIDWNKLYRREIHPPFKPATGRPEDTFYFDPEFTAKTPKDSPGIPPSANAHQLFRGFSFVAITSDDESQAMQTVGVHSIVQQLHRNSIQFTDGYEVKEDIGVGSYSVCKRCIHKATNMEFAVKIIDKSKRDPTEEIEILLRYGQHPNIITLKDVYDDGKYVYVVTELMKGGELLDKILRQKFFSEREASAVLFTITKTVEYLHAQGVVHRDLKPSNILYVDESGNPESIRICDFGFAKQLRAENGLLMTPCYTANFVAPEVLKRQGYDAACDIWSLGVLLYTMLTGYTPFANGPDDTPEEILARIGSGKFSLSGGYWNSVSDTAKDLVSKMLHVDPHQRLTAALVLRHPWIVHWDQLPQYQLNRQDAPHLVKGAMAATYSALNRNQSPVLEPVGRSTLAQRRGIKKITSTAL
Cyclin-dependent kinase 6 (Homo sapiens), sequence (Q00534 whole entry): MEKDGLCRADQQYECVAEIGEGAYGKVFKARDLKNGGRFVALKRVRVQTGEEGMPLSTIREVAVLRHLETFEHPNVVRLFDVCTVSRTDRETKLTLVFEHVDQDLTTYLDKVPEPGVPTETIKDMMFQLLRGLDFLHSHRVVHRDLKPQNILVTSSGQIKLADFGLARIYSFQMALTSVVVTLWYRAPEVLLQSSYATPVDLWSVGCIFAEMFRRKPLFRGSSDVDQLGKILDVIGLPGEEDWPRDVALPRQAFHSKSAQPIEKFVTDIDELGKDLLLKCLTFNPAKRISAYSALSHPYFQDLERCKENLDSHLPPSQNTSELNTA
Cyclin-dependent kinase-like 1 (Homo sapiens), sequence (Q00532 whole entry): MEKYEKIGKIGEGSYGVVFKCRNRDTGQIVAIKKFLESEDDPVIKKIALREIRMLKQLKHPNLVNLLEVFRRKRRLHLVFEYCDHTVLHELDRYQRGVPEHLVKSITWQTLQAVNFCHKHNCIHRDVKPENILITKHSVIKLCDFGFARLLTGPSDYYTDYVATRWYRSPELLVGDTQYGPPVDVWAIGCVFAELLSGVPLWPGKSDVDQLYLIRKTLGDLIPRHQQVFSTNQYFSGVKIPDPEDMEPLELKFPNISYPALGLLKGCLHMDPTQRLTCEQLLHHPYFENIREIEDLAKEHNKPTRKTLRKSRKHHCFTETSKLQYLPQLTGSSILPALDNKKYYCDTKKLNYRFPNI

As to `Cc1cc(C=C2C(=O)C=CC2=O)cc(C)c1O`, the shift in melting temperature (ΔTm) (usually the change in melting temperature against a reference sample) in [1] was 3.2 °C; in experiment [2] it was 0.5 °C; in experiment [3], 1.2 °C; in [4], -5.7 °C; in experiment [5], -7.9 °C; in experiment [6], -4.6 °C. Moreover, the ΔTm was -0.1 °C in experiment [7]; 1 °C in experiment [8]; -0.8 °C in experiment [9]; 2.6 °C in [10]; 0.1 °C in [11]; -3.4 °C in [12]. The shift in melting temperature (ΔTm) in [13] was -1.6 °C; in experiment [14], -2.6 °C; in experiment [15], 0.2 °C; in experiment [16] it was -2.9 °C; in experiment [17], 0.4 °C; in experiment [18], -4.1 °C. Further, the ΔTm in [19] was 0.1 °C; in experiment [20], -1.4 °C; in experiment [21], -2.2 °C.
In the case of `COc1cc(/C=C/C(=O)CC(=O)/C=C/c2ccc(O)c(OC)c2)ccc1O` [CURCUMIN], the ΔTm is 0.9 °C in experiment [1]; 2.3 °C in experiment [2]; -0.1 °C in experiment [3]; 2.9 °C in experiment [4]; 3 °C in [5]; 7.4 °C in [6]. Besides, the ΔTm was 1 °C in experiment [7]; 1.9 °C in experiment [8]; 2.6 °C in [9]; 3.1 °C in experiment [10]; 3.7 °C in experiment [11]; 2.1 °C in [12]. In addition, the ΔTm stood at 1.8 °C in experiment [13]; 1.6 °C in experiment [14]; 1.4 °C in [15]; 3.4 °C in [16]; 1.7 °C in experiment [17]; 5.9 °C in experiment [18]. Also, the shift in melting temperature (ΔTm) stood at 4.5 °C in experiment [19], 2.5 °C in experiment [20] and 3.9 °C in experiment [21].
Take `NC1=N/C(=C2/CCNC(=O)c3[nH]ccc32)C(=O)N1` [DEBROMOHYMENIALDISINE]: the shift in melting temperature (ΔTm) was found to be 0.4 °C in experiment [1]; 3.5 °C in experiment [2]; 0.1 °C in [3]; 2.5 °C in [4]; 6.4 °C in experiment [5]; 10.2 °C in experiment [6]. For the same compound, the thermal shift (ΔTm) in experiment [7] was 0.7 °C; in experiment [8], 0.7 °C; in experiment [9], 3.7 °C; in experiment [10] it was 4.6 °C; in [11], 0.4 °C; in [12], 0.6 °C. The ΔTm turned out to be 0.3 °C in [13]; 0.1 °C in [14]; 0.7 °C in experiment [15]; 5 °C in [16]; 1.3 °C in experiment [17]; 1.6 °C in experiment [18]. The thermal shift (ΔTm) in experiment [19] was 3.6 °C; in [20], 0.7 °C; in experiment [21], 0.3 °C.
Take `COc1cccc(-c2cc(=O)c3ccccc3o2)c1N`: the thermal shift (ΔTm) in experiment [1] is 0.6 °C; in [2] it was 0.5 °C; in experiment [3], -0.5 °C; in experiment [4], 0.2 °C; in experiment [5] it was -0.2 °C; in experiment [6], 0.7 °C. The ΔTm in experiment [7] was 0 °C; in [8], 0.3 °C; in experiment [9], 0 °C; in [10] it was -0.1 °C; in experiment [11] it was 0.2 °C; in [12], 0.1 °C. Also, the shift in melting temperature (ΔTm) is 0.3 °C in [13]; 0.4 °C in experiment [14]; 0.2 °C in [15]; 0.1 °C in experiment [16]; -0.1 °C in experiment [17]; -0.1 °C in experiment [18]. Further, the results for the ΔTm in [19], in experiment [20] and in [21] were 0.1 °C, 0.9 °C and 0 °C, respectively.
For `C[S+]([O-])c1ccc(CSc2nc(-c3ccc(F)cc3)c(-c3ccncc3)[nH]2)cc1` (stereo unspecified), the thermal shift (ΔTm) in [1] was 0.5 °C; in experiment [2] it was 0.9 °C; in [3] it was -0.1 °C; in experiment [4] it was 0.4 °C; in [5] it was 0.1 °C; in [6], 0 °C. The shift in melting temperature (ΔTm) in experiment [7] stood at 0 °C; in experiment [8], 0.5 °C; in [9], 0.2 °C; in [10] it was 0.9 °C; in [11], 0.1 °C; in experiment [12], 0.2 °C. Moreover, the ΔTm is -0.2 °C in experiment [13]; 0 °C in experiment [14]; 0.1 °C in experiment [15]; 0 °C in experiment [16]; 0.4 °C in experiment [17]; 0.1 °C in experiment [18]. The ΔTm in experiment [19] is 0.2 °C; in experiment [20] it was -2 °C; in [21], 0.2 °C.
Consider `CC(C)(C)n1nc(-c2ccc(Cl)cc2)c2c(N)ncnc21`, for which the ΔTm in [1] is 1 °C; in experiment [2] it was 0.8 °C; in experiment [3], 0.5 °C; in experiment [4], 0.2 °C; in [5], 0.4 °C; in experiment [6], 0.1 °C. Moreover, the ΔTm was 0.2 °C in experiment [7]; 0.7 °C in [8]; 1.4 °C in experiment [9]; 0.3 °C in experiment [10]; 1.2 °C in experiment [11]; -0.4 °C in experiment [12]. The ΔTm in experiment [13] is -0.2 °C; in [14], -0.1 °C; in experiment [15] it was 0.3 °C; in experiment [16], 0.5 °C; in experiment [17], -0.5 °C; in [18] it was 1.4 °C. For the same compound, the shift in melting temperature (ΔTm) is 1 °C in experiment [19], 0.1 °C in experiment [20] and -0.4 °C in experiment [21].
